Laboratory results reported in paper PMC7764665, “Food (Matrix) Effects on Bioaccessibility and Intestinal Permeability of Major Olive Antioxidants” (Foods, 2020).
Converted amounts (≈) assume the structure as drawn. “And” between values parts separate entries of the source, which are not always exact repeats. Identical values can stand only once.

Key:
[1] = Standardized static in vitro simulation of gastrointestinal digestion of OPE (bioaccessibility), alone or co-digested with food; type: in vitro ADME; conditions: fed vs fasted state biorelevant media (FeSSGF/FeSSIF vs FaSSGF/FaSSIF)
Caco-2 cell monolayer = assay: Transepithelial transport of HTS and TS in Caco-2 monolayers; conditions: 2 h, compared to MIX; for transepithelial permeability in presence of glucose: 40 µg/mL HTS and TS with 10 mM glucose; for transepithelial permeability in presence of cellulose: 40 µg/mL HTS and TS with 1% cellulose
[2] = parameters: method as in PMID 11435519; conditions: rat model, lipid-rich matrix (olive oil); cited from earlier work
[3] = parameters: method as in PMID 29663812; conditions: co-digestion with the test meal; cited from earlier work
[4] = parameters: method as in PMID 18209271; conditions: after virgin olive oil ingestion; cited from earlier work
[5] = source not given; cited from earlier work
Caco-2 Cells = test system: Caco-2 Cells; parameters: method as in PMID 29663812; conditions: co-digestion with the test meal; cited from earlier work
[6] = Standardized static in vitro simulation of gastrointestinal digestion of OPE (bioaccessibility), alone or co-digested with food; type: in vitro ADME; conditions: for bioaccessible amount after gastrointestinal digestion / amount in OPE before gastrointestinal digestion: OPE; for bioaccessible amount after gastrointestinal digestion: after simulated gastrointestinal digestion; for amount in OPE before gastrointestinal digestion: before digestion (start of the printed increase); for effect of standardized food model (SFM) on bioaccessibility: digestion with SFM compared to other applied methods
Description: Total polyphenols (total reductive capacity) of analyzed samples was assessed by Folin–Ciocalteu method that relies on the transfer of electrons in alkaline medium from phenolic (or other reductive) compounds to phosphomolybdic/phosphotungstic acid complexes, which are determined spectroscopically at 765 nm. Experiments were conducted according to the protocol described by Ainsworth and co-workers. Moreover, 20 µL of adequately diluted sample/standard/solvent (blank) were added in triplicate to 96-well plate (Thermo Fisher Scientific 130188, Rochester, NY, USA) and incubated at 37 °C with 50 µL of Folin Ciocalteu reagent (10% (v/v)) for 5 min. The 160 µL of Na2CO3 (700 mM) was added into each well, shaken, and incubated at 37 °C for 30 min. Absorbance was read at 765 nm and results were expressed as gallic acid equivalents (GAE). HTS and TS were identified and quantified by HPLC system (Waters Alliance 2695, Milford, MA, USA) coupled with a 2475 Multi λ detector (FLD) with Xenon lamp, according to slightly modified method of Tsarbopoulos and co-workers. Samples were prepared by filtration through 0.45 μm polyethersulfone (PES) syringe filters (Macherey–Nagel, Düren, Germany). Chromatographic separation was conducted by injecting 20 μL of sample on a reversed phase column (250 × 4.6 mm, 5 μm) (Agilent Zorbax Eclipse Plus C18, Santa Clara, CA, USA). Mobile phases were 0.05 M sodium acetate buffer pH 5 and acetonitrile with the flow rate of 1 mL/min. Elution was conducted over 25 min at 25 °C. Identification was performed with FLD set at the excitation wavelength of 280 nm, and emission wavelength of 316 nm. Polyphenols were identified by comparing the retention times of the eluting peaks with those of the standards. Peaks were quantified by using the Empower2 software (Waters, Milford, MA, USA) and compared to external standard calibration. Standard stock solutions were prepared by dissolving reference compounds in DMSO. In vitro simulation of gastrointestinal digestion and the assessment of bioaccessibility of hydroxytyrosol and tyrosol from OPE was conducted by standardized static in vitro digestion method suitable for food. Three-phase digestion process was applied consisting of short salivary phase, simulation of gastric digestion and simulation of duodenal digestion. Briefly, 200 mg of OPE was used alone or mixed with 600 mg of food matrix (Table S4) in 50 mL Falcon tube. The 875 µL of SSF, 125 µL of salivary α amylase solution, 6.25 µL of CaCl2 (0.3 mol/L), and 243.8 µL of water was added, and the mixture incubated at 37 °C for 2 min with constant shaking. The 2.5 mL of reaction mixture were transferred to another Falcon tube and mixed with 1.875 mL of SGF, 1.25 µL of CaCl2 (0.3 mol/L), and 50 µL of HCl (1 mol/L). The pH of the mixture was adjusted to 3, and total volume was adjusted to 5 mL with water. The content of the Falcon tube was vortexed and incubated for 2 h at 37 °C with constant shaking. Every 15 min pH of the mixture was checked and adjusted to 3 if necessary. At the end of simulation of the gastric digestion step, 5 mL of aliquot were transferred to another 50 mL Falcon tube for the simulation of intestinal digestion. The 2.75 mL of SIF, 1.25 mL of pancreatin solution, 0.625 mL of bile salt (160 mmol/L), 10 µL of CaCl2 (0.3 mol/L), and 37.5 µL of NaOH (1 mol/L) were added. The pH was checked and adjusted to 7. Total volume of reaction mixture was adjusted to […], mixtures were vortexed and incubated for 2 h at 37 °C with constant shaking. Every 15 min, pH of the mixture was checked and adjusted to 7 if necessary. After digestion, simulation samples were cooled at −20 °C for 10 min and centrifuged (Heraeus Biofuge Stratos, Hanau, Germany) for 20 min at 4 °C and 4100 rpm. For HPLC analysis of hydroxytyrosol and tyrosol, obtained supernatants were additionally filtered through 0.45 µm polyether sulfone (PES) syringe filters. […]

[7] = OPE co-digested with apple (peeled, no skin), relative to OPE without food
[8] = OPE co-digested with banana, relative to OPE without food
[9] = OPE co-digested with breakfast cereals, relative to OPE without food
[10] = OPE co-digested with canned tuna, relative to OPE without food
[11] = OPE co-digested with cellulose, relative to OPE without food
[12] = OPE co-digested with corn starch, relative to OPE without food
[13] = OPE co-digested with fresh low fat cheese, relative to OPE without food
[14] = OPE co-digested with honey, relative to OPE without food
[15] = OPE co-digested with milk formula, relative to OPE without food
[16] = OPE co-digested with milk, relative to OPE without food
[17] = OPE co-digested with potato (boiled), relative to OPE without food
[18] = OPE co-digested with silverbeat (blanched), relative to OPE without food
[19] = OPE co-digested with souce bolognese, relative to OPE without food
[20] = OPE co-digested with sour cream, relative to OPE without food
[21] = OPE co-digested with soy flakes, relative to OPE without food
[22] = OPE co-digested with whole-grain bread, relative to OPE without food
[23] = OPE co-digested with yoghurt, relative to OPE without food
[24] = OPE digested without food (reference)

OCCc1ccc(O)c(O)c1 [HTS, 3-hydroxytyrosol]
influence of food-induced changes of pH and digestion fluid composition on bioaccessibility [1]: do not influence | transepithelial permeability in presence of glucose (Caco-2 cell monolayer): significantly improved | transepithelial permeability in presence of cellulose (Caco-2 cell monolayer): did not result in increased permeability | transepithelial permeability in presence of inulin (Caco-2 cell monolayer; 40 µg/mL HTS and TS with 1% inulin): significant reduction | greater absorption from olive oil compared to aqueous solution [2]: 25% | change of bioaccessibility by presence of foods [3]: −20% | time of peak concentration in plasma [4]: around 1 h | time of peak in urine [4]: 0 to 2 h | water solubility [5]: 17.4 mg/mL (≈ 113 mM) | change of intestinal permeability by presence of foods (Caco-2 Cells): −10% | relative bioaccessibility [6, 7]: 54.8 ± 0.72% | relative bioaccessibility [6, 8]: 65.8 ± 5.05% | relative bioaccessibility [6, 9]: 76.0 ± 2.30% | relative bioaccessibility [6, 10]: 98.3 ± 4.92% | relative bioaccessibility [6, 11]: 108.2 ± 2.24% | relative bioaccessibility [6, 12]: 94.9% and 94.9 ± 2.19% | relative bioaccessibility [6, 13]: 95.5 ± 8.16% | relative bioaccessibility [6, 14]: 89.5% and 89.5 ± 7.26% | relative bioaccessibility [6, 15]: 95.9 ± 0.96% | relative bioaccessibility [6, 16]: 98.6 ± 3.11% | relative bioaccessibility ([6]; OPE co-digested with pectin, relative to OPE without food): 93.2% and 93.2 ± 3.04% | relative bioaccessibility [6, 17]: 92.8 ± 5.88% | relative bioaccessibility [6, 18]: 69.3 ± 0.79% | relative bioaccessibility [6, 19]: 84.2 ± 4.61% | relative bioaccessibility [6, 20]: 102.3 ± 2.18% | relative bioaccessibility [6, 21]: 69.8 ± 1.06% | relative bioaccessibility [6, 22]: 57.4 ± 0.97% | relative bioaccessibility [6, 23]: 92.5 ± 0.82% | relative bioaccessibility [6, 24]: 100.0 ± 2.86% | bioaccessible amount after gastrointestinal digestion [6]: 109.3 mg/100g | amount in OPE before gastrointestinal digestion [6]: 78.4 mg/100g | effect of standardized food model (SFM) on bioaccessibility [6]: no effect

OCCc1ccc(O)cc1 [TS, tyrosol]
influence of food-induced changes of pH and digestion fluid composition on bioaccessibility [1]: do not influence | transepithelial permeability in presence of glucose (Caco-2 cell monolayer): significantly improved | transepithelial permeability in presence of cellulose (Caco-2 cell monolayer): did not result in increased permeability | greater absorption from olive oil compared to aqueous solution [2]: 25% | time of peak concentration in plasma [4]: around 1 h | time of peak in urine [4]: 0 to 2 h | water solubility [5]: 25.3 mg/mL (≈ 183 mM) | relative bioaccessibility [6, 7]: 67.2 ± 0.55% | relative bioaccessibility [6, 8]: 104.5 ± 2.15% | relative bioaccessibility [6, 9]: 79.3 ± 8.70% | relative bioaccessibility [6, 10]: 98.5 ± 1.12% | relative bioaccessibility [6, 11]: 87.4% | relative bioaccessibility [6, 12]: 88.7% and 88.1 ± 1.66% | relative bioaccessibility [6, 13]: 106.4 ± 4.35% | relative bioaccessibility [6, 14]: 97.8% and 97.8 ± 0.91% | relative bioaccessibility [6, 15]: 81.3 ± 3.95% | relative bioaccessibility [6, 16]: 94.6 ± 1.63% | relative bioaccessibility [6, 17]: 92.4 ± 1.64% | relative bioaccessibility [6, 18]: 89.9 ± 4.59% | relative bioaccessibility [6, 19]: 92.4 ± 0.46% | relative bioaccessibility [6, 20]: 97.4 ± 3.34% | relative bioaccessibility [6, 21]: 93.0 ± 1.93% | relative bioaccessibility [6, 22]: 73.0 ± 0.66% | relative bioaccessibility [6, 23]: 73.8 ± 1.42% | relative bioaccessibility [6, 24]: 99.9 ± 6.75% | bioaccessible amount after gastrointestinal digestion [6]: 27.4 mg/100g | amount in OPE before gastrointestinal digestion [6]: 20.7 mg/100g | effect of standardized food model (SFM) on bioaccessibility [6]: no effect
